In patent publication US20230263798A1, “COMPOSITIONS AND METHODS FOR TREATING THERAPY RESISTANT CANCER” (The General Hospital Corporation, priority 2020, published 2023):

What was measured:
METTL3 [1] = assay: Western blot analysis of METTL3 in MCF7 cells; assay type: cell-based; settings: MCF7 cells, agent alone vs untreated/buffer, Western blot
Excerpt: (§1) The Western blot includes samples with control shRNA or shMETTL3. […] Tubulin and Histone serve as Western blot loading controls. Data are average of 3 replicates +/-SEM. See also FIGS. 2A-2G.
(§2) Data are average of 3 replicates +/-SEM. Tubulin serves as the loading control.
(§3) Tubulin and Histone serve as Western blot loading controls. Data are average of 3 replicates +/-SEM. See also FIGS. 4A-4H.
(§4) Actin and Tubulin are loading controls for Western blots. Data are average of 3 replicates +/-SEM.
(§5) FIGS. 8C and 8D show Western blot analysis of PARP1, phospho-elF2α, METTL3 with doxorubicin or Sal003 treatment. […] 500 nM Doxorubicin treated MCF7 cells were co-treated with 6uM of Enzastaurin or DMSO buffer. […] Data are average of 3 replicates +/-SEM.
(§6) To determine the mechanisms of specific mRNA expression in chemosurviving cancer cells, we examined RNA binding regulators in chemosurviving MCF7 breast cancer cells, isolated after doxorubicin chemotherapy treatment.

METTL3 [2] = assay: Western blot of METTL3 in BT549 cells; assay type: cell-based; settings: over time of treatment
phospho-elF2α [3] = assay: Western blot of elF2α phosphorylation in MCF7 cells; assay type: cell-based; settings: MCF7 cells, agent alone, Western blot
Method: as §5

phospho-elF2α [4] = assay: Western blot of elF2α phosphorylation in BT549 cells; assay type: cell-based; settings: over time of treatment
Method: as §2
as §6, with “treatment. […] The increase observed is transient and is not observed at 48 h of treatment (FIG. 2A).” for “treatment.”

m6A on RNA = assay: m6A on ribosomal RNA depleted RNA (dot blot, 2D-TLC); assay type: cell-based; settings: ribosomal RNA depleted RNA from treated vs untreated MCF7 cells; dot blot or 2D-TLC
Method: The Western blot includes samples with control shRNA or shMETTL3. […] Tubulin and Histone serve as Western blot loading controls. Data are average of 3 replicates +/-SEM. See also FIGS. 2A-2G. […]
To test whether the increased m6A modification enzymes lead to increased m6A modification on RNA, ribosomal RNA depleted RNA from doxorubicin treated cells compared to untreated cells by dot blot analyses was tested. […] Consistent with decreased METTL3 upon knockdown, the dot blot signal is depleted when METTL3 is knocked down (FIG. 1B). Second, RNA from doxorubicin treated cells for m6A by two-dimensional-thin layer chromatography separation (2D-TLC) was performed (H. Grosjean, G. Keith, L. Droogmans, Detection and quantification of modified nucleotides in RNA using thin-layer chromatography. Methods in molecular biology (Clifton, N.J.) 265, 357-391 (2004)).

METTL3 [5] = assay: Western blot of METTL3 in breast cancer patient samples grown in 3D cultures; assay type: cell-based; settings: hormone positive breast cancer patient samples grown as tumor spheres
Excerpt: as §1
As METTL3 increases in chemosurviving cells and increases m6A on RNA, we tested whether METTL3 increase is needed for chemosurvival by depleting METTL3 or overexpressing METTL3 or a catalytically defective METTL3 (CD-M3) mutant and then tested these cells for doxorubicin survival.

METTL3 [6] = assay: Western blot of METTL3 in patient-derived xenografts treated in vivo; settings: hormone positive breast cancer patient derived xenografts, 2-1 0 mg/kg doxorubicin in vivo
METTL3 mRNA = METTL3 mRNA level and translation (qPCR, polysome fractionation, nascent amino acid labeling); assay type: cell-based
Method: as §3, §4
To verify that the increase in METTL3 was at the translation level, polysome analysis was conducted first. […] We next verified increased polysome association of METTL3 mRNA with Y10B antibody immunoprecipitation in doxorubicin treated and in Sal003 cells compared to buffer treated cells (FIGS. 3I and 4F).

PARP1 = assay: Western blot analysis of PARP1; assay type: cell-based; settings: treated cells
Method: as §5
Consistently, doxorubicin treated cells are sensitive to PARP inhibitors, such as Talazoparib (BMN-673, FIG. 8B).

METTL3 5′UTR = assay: Firefly luciferase reporter bearing the 5′UTR of METTL3; assay type: cell-based; settings: doxorubicin treated vs untreated cells, normalized to Renilla
Excerpt: FIGS. 5A-5I show HuR and associated translation initiation factors promote METTL3 translation in doxorubicin resistant cells. […] Tubulin is the loading control for Western blots. Data are average of 3 replicates +/-SEM. See also FIGS. 6A-6K.
To test if METTL3 mRNA encodes for cis-acting elements that direct its translation upregulation in doxorubicin-treated cells, we constructed Luciferase reporters bearing METTL3 mRNA 5′UTR and 3′UTR, or their reverse sequences or vector sequence as controls. We tested these reporters and their controls in untreated and doxorubicin treated cells. […] Importantly, RNA levels of the 5′UTR reporter remained unaffected between doxorubicin treated compared to untreated cells, and compared to reverse or vector reporters, indicating translation control.

HuR = assay: Western blot of HuR; assay type: cell-based; settings: over time of doxorubicin treatment
Excerpt: Western blot is shown of other RNA binding proteins that increase in mass spectrometry data. […] FIGS. 6J and 6K show Hexim, PPM1G and HuR increase in chemotreated patient samples and on doxorubicin treatment.

METTL14 = assay: Western blot of METTL14 in breast cancer patient samples grown as tumor spheres; assay type: cell-based

`COc1cccc2c1C(=O)c1c(O)c3c(c(O)c1C2=O)C[C@@](O)(C(=O)CO)C[C@@H]3O[C@H]1C[C@H](N)[C@H](O)[C@H](C)O1` [doxorubicin] was tested, and the METTL3 level (METTL3 [1]) was “increases”, the METTL3 level (METTL3 [2]) was “transient increase” and the elF2α phosphorylation (phospho-elF2α [3]) was “phosphorylated over time”. The elF2α phosphorylation (phospho-elF2α [4]) was “transient increase”, the “m6A on RNA” value (m6A on RNA) was “more m6A modified RNA” and the METTL3 level (METTL3 [5]) was “increased”. The METTL3 level (METTL3 [6]) was “increases”, the “labeled (newly translated) METTL3, nascent translation assay” value (METTL3 mRNA; Click-it Puro labeling, METTL3 immunoprecipitation, treated vs untreated) was “increase” and the “METTL3 and METTL14 RNA levels by qPCR” value (METTL3 mRNA; doxorubicin treated vs untreated cells) was “no increase”. The “METTL3 mRNA on polysomes compared to monosomes” value (METTL3 mRNA; treated vs buffer treated cells, polysome fractionation and qPCR) was “increased”, the PARP1 level (PARP1) was “increases” and the “METTL3 5′UTR luciferase reporter translation” value (METTL3 5′UTR) was “enhanced translation”. For the same compound, the HuR level (HuR) was “increase” and the METTL14 level (METTL14) was “Increase”.
